In ChEMBL document CHEMBL5096208, “Installation of Pargyline, a LSD1 Inhibitor, in the HDAC Inhibitory Template Culminated in the Identification of a Tractable Antiprostate Cancer Agent” (J Med Chem, 2021):

Target: T1, Protein deacetylase HDAC6 (Homo sapiens, UniProt Q9UBN7)
T1 sequence (Q9UBN7 whole entry): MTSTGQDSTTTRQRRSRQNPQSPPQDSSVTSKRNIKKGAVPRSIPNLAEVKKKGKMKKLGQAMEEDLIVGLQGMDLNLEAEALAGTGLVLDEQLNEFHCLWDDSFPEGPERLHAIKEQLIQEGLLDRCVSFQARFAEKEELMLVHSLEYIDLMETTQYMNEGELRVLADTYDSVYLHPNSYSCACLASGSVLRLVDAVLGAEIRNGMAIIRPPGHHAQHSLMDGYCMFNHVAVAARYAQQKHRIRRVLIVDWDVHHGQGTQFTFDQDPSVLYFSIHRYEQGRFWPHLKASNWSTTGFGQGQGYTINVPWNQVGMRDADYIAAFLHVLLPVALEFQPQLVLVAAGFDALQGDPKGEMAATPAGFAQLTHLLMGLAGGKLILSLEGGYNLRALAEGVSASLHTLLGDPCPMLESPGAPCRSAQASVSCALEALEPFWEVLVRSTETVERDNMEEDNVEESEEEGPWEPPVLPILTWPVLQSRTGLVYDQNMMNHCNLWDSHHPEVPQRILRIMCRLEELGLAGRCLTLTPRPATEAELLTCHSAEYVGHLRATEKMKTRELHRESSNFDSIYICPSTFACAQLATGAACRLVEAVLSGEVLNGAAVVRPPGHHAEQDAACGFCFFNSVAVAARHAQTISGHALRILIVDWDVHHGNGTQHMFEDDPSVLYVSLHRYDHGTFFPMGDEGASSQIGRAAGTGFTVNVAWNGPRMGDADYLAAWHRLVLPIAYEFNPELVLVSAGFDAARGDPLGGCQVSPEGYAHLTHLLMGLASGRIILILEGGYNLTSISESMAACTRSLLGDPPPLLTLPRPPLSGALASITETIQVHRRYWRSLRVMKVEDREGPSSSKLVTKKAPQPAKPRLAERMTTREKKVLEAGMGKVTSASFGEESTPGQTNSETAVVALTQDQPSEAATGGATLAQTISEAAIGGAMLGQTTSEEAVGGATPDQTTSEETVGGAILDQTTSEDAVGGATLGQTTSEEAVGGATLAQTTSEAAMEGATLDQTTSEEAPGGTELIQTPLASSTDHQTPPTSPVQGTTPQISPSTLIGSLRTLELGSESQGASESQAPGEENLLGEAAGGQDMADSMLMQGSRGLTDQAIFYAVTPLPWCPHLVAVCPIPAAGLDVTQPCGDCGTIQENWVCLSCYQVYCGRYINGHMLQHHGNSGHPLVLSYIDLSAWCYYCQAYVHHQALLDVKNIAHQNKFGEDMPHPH
Assay: Inhibition of human HDAC6 (379 to 382 residues) using RHKKAc as flurogenic substrate

Question: For C#CCN(C)Cc1cccc(NC(=O)CCCCCCC(=O)NO)c1, which IC50 is on record?
Answer: The IC50 was 20 nM.
